Measurements reported in US20230233569A1 (Revolution Medicines, Inc., priority 2020, published 2023).
Where two headings read alike, the source gives them in different places.

Key:
AsPC-1 (K-Ras G12D) [1] = test: Potency assay: pERK; format: cell-based; settings: Homo sapiens
NCI-H358 (K-Ras G12C) = test: CellTiter-Glo cell viability assay; format: cell-based; settings: Homo sapiens, NCI-H358, 120 h
Procedure, shortened: (§1)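 Luminescent viability readout on day 5, plates first brought to room temperature for ~30 min; compounds added straight to plated RAS-mutant cells. Values expressed as percent of mean DMSO signal, curves fitted with a four-parameter logistic model.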

AsPC-1 (K-Ras G12D) [2] = test: CellTiter-Glo cell viability assay; format: cell-based; settings: Homo sapiens, ASPC1, 120 h
Procedure, shortened: as §1

KRAS G12C = KRAS G12C (Homo sapiens, UniProt P01116+P62937, G12C); test: Ras-Raf disruption / FRET / MOA assay (BRAF RBD); format: biochemical; settings: with Cyclophilin A
Procedure, shortened: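 TR-FRET read-out after 1.5 h with anti-His Eu-W1024 (10 nM) and anti-GST APC (50 nM), following 3 h at 25 °C of compound (top 30 μM, 3-fold, 10 points) with 25 μM Cyclophilin A, 12.5 nM GMPPNP-loaded K-Ras G12C and 50 nM BRAF RBD; IC50 reported.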

KRAS G12D = KRAS G12D (Homo sapiens, UniProt P01116+P62937, G12D); test: Ras-Raf disruption / FRET / MOA assay (BRAF RBD); format: biochemical; settings: with Cyclophilin A
Procedure, shortened: (§2)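 Compound-induced Ras–Cyclophilin A ternary complex disrupting BRAF RBD binding, read as IC50 from reduced TR-FRET ratio relative to DMSO. Final: Ras-GMPPNP 12.5 nM, BRAF RBD 50 nM, Cyclophilin A 25 μM, top compound 30 μM (3-fold, 10 points); 3 h at 25 °C, then 1.5 h with detection antibodies.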

KRAS G12V = KRAS G12V (Homo sapiens, UniProt P01116+P62937, G12V); test: Ras-Raf disruption / FRET / MOA assay (BRAF RBD); format: biochemical; settings: with Cyclophilin A
Procedure, shortened: as §2

KRAS G12S = KRAS G12S (Homo sapiens, UniProt P01116+P62937, G12S); test: Ras-Raf disruption / FRET / MOA assay (BRAF RBD); format: biochemical; settings: with Cyclophilin A
Procedure, shortened: as §2

NRAS G12C = NRAS G12C (Homo sapiens, UniProt P01111+P62937, G12C); test: Ras-Raf disruption / FRET / MOA assay (BRAF RBD); format: biochemical
Procedure, shortened: as §2

KRAS G13C = KRAS G13C (Homo sapiens, UniProt P01116+P62937, G13C); test: Ras-Raf disruption / FRET / MOA assay (BRAF RBD); format: biochemical; settings: with Cyclophilin A
Procedure, shortened: as §2

KRAS G13D = KRAS G13D (Homo sapiens, UniProt P01116+P62937, G13D); test: Ras-Raf disruption / FRET / MOA assay (BRAF RBD); format: biochemical; settings: with Cyclophilin A
Procedure, shortened: as §2

KRAS WT = KRAS WT (Homo sapiens, UniProt P01116+P62937); test: Ras-Raf disruption / FRET / MOA assay (BRAF RBD); format: biochemical; settings: with Cyclophilin A
Procedure, shortened: as §2

KRAS Q61H = KRAS Q61H (Homo sapiens, UniProt P01116+P62937, Q61H); test: Ras-Raf disruption / FRET / MOA assay (BRAF RBD); format: biochemical; settings: KRAS Q61H; read-out: KRAS Q61H FRET data IC50
Procedure, shortened: as §2

NRAS Q61R = NRAS Q61R (Homo sapiens, UniProt P01111+P62937, Q61R); test: Ras-Raf disruption / FRET / MOA assay (BRAF RBD); format: biochemical; settings: NRAS Q61R; read-out: NRAS Q61R FRET data IC50
Procedure, shortened: as §2

NRAS Q61K = NRAS Q61K (Homo sapiens, UniProt P01111+P62937, Q61K); test: Ras-Raf disruption / FRET / MOA assay (BRAF RBD); format: biochemical; settings: NRAS Q61K; read-out: NRAS Q61K FRET data IC50
Procedure, shortened: as §2

NRAS WT = NRAS WT (Homo sapiens, UniProt P01111+P62937); test: Ras-Raf disruption / FRET / MOA assay (BRAF RBD); format: biochemical; settings: NRAS WT; read-out: NRAS WT FRET data IC50
Procedure, shortened: as §2

[3] = ASPC1, AsPC-1 KRAS G12D, read-out: pERK EC50
[4] = K-Ras G12C, 5-day treatment, read-out: H358 Cell Viability assay data IC50
[5] = K-Ras G12D, 5-day treatment, read-out: AsPC-1 Cell Viability assay data IC50
[6] = Ras-Raf disruption, read-out: KRAS G12C FRET data IC50
[7] = Ras-Raf disruption, read-out: KRAS G12D FRET data IC50
[8] = Ras-Raf disruption, read-out: KRAS G12V FRET data IC50
[9] = Ras-Raf disruption, read-out: KRAS G12S FRET data IC50
[10] = NRAS G12C, read-out: NRAS G12C FRET data IC50
[11] = Ras-Raf disruption, read-out: KRAS G13C FRET data IC50
[12] = Ras-Raf disruption, read-out: KRAS G13D FRET data IC50
[13] = Ras-Raf disruption, read-out: KRAS WT FRET data IC50
[14] = read-out: H358 Cell Viability assay data IC50, K-Ras G12C, 5-day treatment
[15] = read-out: AsPC-1 Cell Viability assay data IC50, K-Ras G12D, 5-day treatment

Chain of KRAS WT (P01116 1-169 isoform P01116-2 limits assumed): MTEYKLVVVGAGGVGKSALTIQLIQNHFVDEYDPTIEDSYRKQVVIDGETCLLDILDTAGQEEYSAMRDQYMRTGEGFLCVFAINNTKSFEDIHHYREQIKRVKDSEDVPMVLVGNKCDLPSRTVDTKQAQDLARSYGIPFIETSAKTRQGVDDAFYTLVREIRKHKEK
Chain of KRAS WT (P62937 whole entry): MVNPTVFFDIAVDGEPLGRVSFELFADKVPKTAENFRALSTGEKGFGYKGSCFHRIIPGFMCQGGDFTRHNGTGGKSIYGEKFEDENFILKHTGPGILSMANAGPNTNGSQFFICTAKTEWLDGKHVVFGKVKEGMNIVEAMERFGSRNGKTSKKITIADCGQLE
Chain of NRAS G12C (P01111 whole entry G12C): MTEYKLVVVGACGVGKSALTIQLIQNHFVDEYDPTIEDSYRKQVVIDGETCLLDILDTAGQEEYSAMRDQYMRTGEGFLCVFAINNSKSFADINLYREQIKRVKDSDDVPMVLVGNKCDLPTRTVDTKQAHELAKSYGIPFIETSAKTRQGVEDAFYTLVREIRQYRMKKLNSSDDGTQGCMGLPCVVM
Chain of NRAS G12C (P62937 whole entry): as the sequence (P62937 whole entry) above
Chain of KRAS G12S (P01116 1-169 isoform P01116-2 G12S limits assumed): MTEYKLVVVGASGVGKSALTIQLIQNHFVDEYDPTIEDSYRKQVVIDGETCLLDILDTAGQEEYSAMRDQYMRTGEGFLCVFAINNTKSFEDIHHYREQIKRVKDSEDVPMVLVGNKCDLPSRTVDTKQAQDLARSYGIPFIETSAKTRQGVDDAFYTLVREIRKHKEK
Chain of KRAS G12S (P62937 whole entry): as the sequence (P62937 whole entry) above
Chain of KRAS G12V (P01116 1-169 isoform P01116-2 G12V limits assumed): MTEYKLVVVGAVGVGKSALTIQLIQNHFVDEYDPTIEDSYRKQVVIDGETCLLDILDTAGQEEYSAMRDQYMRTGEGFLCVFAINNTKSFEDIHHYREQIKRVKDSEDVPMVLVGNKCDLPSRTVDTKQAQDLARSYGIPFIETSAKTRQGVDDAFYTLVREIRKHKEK
Chain of KRAS G12V (P62937 whole entry): as the sequence (P62937 whole entry) above
Chain of KRAS G13C (P01116 1-169 isoform P01116-2 G13C limits assumed): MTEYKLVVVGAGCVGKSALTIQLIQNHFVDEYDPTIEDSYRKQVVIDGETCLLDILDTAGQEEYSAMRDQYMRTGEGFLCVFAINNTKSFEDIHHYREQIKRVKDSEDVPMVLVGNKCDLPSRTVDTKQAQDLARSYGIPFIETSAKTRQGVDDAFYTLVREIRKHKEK
Chain of KRAS G13C (P62937 whole entry): as the sequence (P62937 whole entry) above
Chain of KRAS G12C (P01116 1-169 isoform P01116-2 G12C limits assumed): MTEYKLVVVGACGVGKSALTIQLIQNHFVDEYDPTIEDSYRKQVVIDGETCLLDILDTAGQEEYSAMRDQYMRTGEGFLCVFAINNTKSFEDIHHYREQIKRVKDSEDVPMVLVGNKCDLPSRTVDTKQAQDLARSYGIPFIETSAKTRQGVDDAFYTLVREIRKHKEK
Chain of KRAS G12C (P62937 whole entry): as the sequence (P62937 whole entry) above
Chain of KRAS G12D (P01116 1-169 isoform P01116-2 G12D limits assumed): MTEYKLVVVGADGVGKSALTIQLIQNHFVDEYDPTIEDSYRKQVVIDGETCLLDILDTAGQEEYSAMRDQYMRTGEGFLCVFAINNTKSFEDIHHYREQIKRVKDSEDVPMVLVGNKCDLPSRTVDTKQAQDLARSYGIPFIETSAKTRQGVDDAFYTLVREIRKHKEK
Chain of KRAS G12D (P62937 whole entry): as the sequence (P62937 whole entry) above
Chain of KRAS G13D (P01116 1-169 isoform P01116-2 G13D limits assumed): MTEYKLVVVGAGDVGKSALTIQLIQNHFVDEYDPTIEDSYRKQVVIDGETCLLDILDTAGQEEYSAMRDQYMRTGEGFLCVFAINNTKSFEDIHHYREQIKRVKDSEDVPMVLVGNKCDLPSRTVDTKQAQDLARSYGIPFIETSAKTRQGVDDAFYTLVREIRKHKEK
Chain of KRAS G13D (P62937 whole entry): as the sequence (P62937 whole entry) above
Chain of NRAS Q61K (P01111 whole entry Q61K): as the sequence (P01111 whole entry G12C) above, with C12G, Q61K counted along it
Chain of NRAS Q61K (P62937 whole entry): as the sequence (P62937 whole entry) above
Chain of NRAS WT (P01111 whole entry): as the sequence (P01111 whole entry G12C) above, with C12G counted along it
Chain of NRAS WT (P62937 whole entry): as the sequence (P62937 whole entry) above
Chain of NRAS Q61R (P01111 whole entry Q61R): as the sequence (P01111 whole entry G12C) above, with C12G, Q61R counted along it
Chain of NRAS Q61R (P62937 whole entry): as the sequence (P62937 whole entry) above
Chain of KRAS Q61H (P01116 1-169 isoform P01116-2 Q61H limits assumed): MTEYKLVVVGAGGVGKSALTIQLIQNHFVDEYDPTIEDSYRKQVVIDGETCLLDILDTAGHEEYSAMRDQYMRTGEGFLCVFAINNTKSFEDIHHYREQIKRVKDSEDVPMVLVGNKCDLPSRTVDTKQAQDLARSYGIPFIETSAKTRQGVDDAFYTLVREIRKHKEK
Chain of KRAS Q61H (P62937 whole entry): as the sequence (P62937 whole entry) above

For `CCn1c(-c2cccnc2[C@H](C)OC)c2c3cc(ccc31)-c1cccc(c1)C[C@H](NC(=O)[C@H](C(C)C)N(C)C(=O)[C@H]1CCN(C(=O)[C@H]3CN3)C1)C(=O)N1CCC[C@H](N1)C(=O)OCC(C)(C)C2` [Example 106], the EC50 (AsPC-1 (K-Ras G12D) [1]; [3]) was < 5 µM, the IC50 (NCI-H358 (K-Ras G12C); [4]) was < 0.01 µM and the IC50 (AsPC-1 (K-Ras G12D) [2]; [5]) was 1 to 10 µM. The IC50 (KRAS G12C; [6]) was 0.01 to 0.1 µM, the IC50 (KRAS G12D; [7]) was 1 to 10 µM and the IC50 (KRAS G12V; [8]) was 1 to 10 µM. The IC50 (KRAS G12S; [9]) was 1 to 10 µM, the IC50 (NRAS G12C; [10]) was 0.01 to 0.1 µM and the IC50 (KRAS G13C; [11]) was 0.1 to 1 µM. The IC50 (KRAS G13D; [12]) was 1 to 10 µM and the IC50 (KRAS WT; [13]) was 1 to 10 µM.

In the case of `CCC(C)N(C)C(=O)c1cncc(-c2c3c4cc(ccc4n2CC)-c2cc(O)cc(c2)C[C@H](NC(=O)[C@H](C(C)C)N(C)C(=O)CN(C)C(=O)[C@H]2CN2)C(=O)N2CCC[C@H](N2)C(=O)OCC(C)(C)C3)c1` (some centres unmarked) [Example 144], the EC50 (AsPC-1 (K-Ras G12D) [1]; ASPC1, read-out: pERK EC50) is reported as < 5 µM, the IC50 (NCI-H358 (K-Ras G12C); [14]) is reported as 0.01 to 0.1 µM and the IC50 (AsPC-1 (K-Ras G12D) [2]; [15]) is reported as 0.1 to 1 µM.

In the case of `CCn1c(-c2cnccc2COC)c2c3cc(ccc31)-c1cc(O)cc(c1)C[C@H](NC(=O)[C@H](C(C)C)N(C)C(=O)CN(C)C(=O)[C@H]1CN1)C(=O)N1CCC[C@H](N1)C(=O)OCC(C)(C)C2` [Example 7], the EC50 (AsPC-1 (K-Ras G12D) [1]; ASPC1, read-out: pERK EC50) is reported as < 5 µM, the IC50 (NCI-H358 (K-Ras G12C); [14]) is reported as 0.01 to 0.1 µM and the IC50 (AsPC-1 (K-Ras G12D) [2]; [15]) is reported as 0.1 to 1 µM.

In the case of `CCn1c(-c2cccnc2[C@H](C)OC)c2c3cc(ccc31)-c1cc(O)cc(c1)C[C@H](NC(=O)[C@H](C(C)C)N(C)C(=O)CN(C)C(=O)[C@H]1CN1)C(=O)N1CCC[C@H](N1)C(=O)OCC(C)(C)C2` (single isomer, unassigned) [Example 42A], the EC50 (AsPC-1 (K-Ras G12D) [1]; ASPC1, read-out: pERK EC50) is reported as < 5 µM, the IC50 (NCI-H358 (K-Ras G12C); [14]) is reported as < 0.01 µM and the IC50 (KRAS G12C; KRAS G12C FRET data IC50, Ras-Raf disruption) is reported as < 0.01 µM. The IC50 (KRAS G12D; KRAS G12D FRET data IC50, Ras-Raf disruption) was 0.01 to 0.1 µM, the IC50 (KRAS G12V; KRAS G12V FRET data IC50, Ras-Raf disruption) was 0.01 to 0.1 µM and the IC50 (KRAS G12S; KRAS G12S FRET data IC50, Ras-Raf disruption) was 0.01 to 0.1 µM. For the same compound, the IC50 (NRAS G12C; NRAS G12C FRET data IC50, NRAS G12C) was < 0.01 µM, the IC50 (KRAS G13C; KRAS G13C FRET data IC50, Ras-Raf disruption) was < 0.01 µM and the IC50 (KRAS G13D; KRAS G13D FRET data IC50, Ras-Raf disruption) was 0.01 to 0.1 µM. It also gave an IC50 (KRAS WT; KRAS WT FRET data IC50, Ras-Raf disruption) of 0.01 to 0.1 µM.

For `CCn1c(-c2cnccc2COC)c2c3cc(ccc31)-c1cc(O)cc(c1)C[C@H](NC(=O)[C@H](C(C)C)N(C)C(=O)CN(C)C(=O)[C@@H]1CN1)C(=O)N1CCC[C@H](N1)C(=O)OCC(C)(C)C2` [Example 8], the EC50 (AsPC-1 (K-Ras G12D) [1]; ASPC1, read-out: pERK EC50) was < 5 µM, the IC50 (NCI-H358 (K-Ras G12C); [14]) was 0.01 to 0.1 µM and the IC50 (AsPC-1 (K-Ras G12D) [2]; [15]) was 1 to 10 µM.

Compound `CCn1c(-c2cccnc2[C@H](C)OC)c2c3cc(ccc31)-c1cc(cc(C(F)F)c1)C[C@H](NC(=O)[C@H](C1CCCC1)N1CC[C@]3(CCN(C(=O)[C@@H]4N[C@@H]4C4CC4)C3)C1)C(=O)N1CCC[C@H](N1)C(=O)OCC(C)(C)C2` [Example 318] has an IC50 (NCI-H358 (K-Ras G12C); [4]) of 0.1 to 1 µM, an IC50 (AsPC-1 (K-Ras G12D) [2]; [5]) of 0.1 to 1 µM and an IC50 (KRAS G12C; [6]) of 0.1 to 1 µM. For the same compound, the IC50 (KRAS G12D; [7]) was 1 to 10 µM, the IC50 (KRAS Q61H) was 0.1 to 1 µM and the IC50 (KRAS G12V; [8]) was 1 to 10 µM. For the same compound, the IC50 (KRAS G12S; [9]) was 1 to 10 µM, the IC50 (NRAS G12C; [10]) was 1 to 10 µM and the IC50 (KRAS G13C; [11]) was 0.1 to 1 µM. The IC50 (KRAS G13D; [12]) was 1 to 10 µM, the IC50 (NRAS Q61R) was 1 to 10 µM and the IC50 (NRAS Q61K) was 1 to 10 µM. It also gave an IC50 (KRAS WT; [13]) of 0.1 to 1 µM and an IC50 (NRAS WT) of 1 to 10 µM.

`CCn1c(-c2cccnc2[C@H](C)OC)c2c3cc(ccc31)-c1cc(O)cc(c1)C[C@H](NC(=O)[C@H](C(C)C)N(C)C(=O)[C@@]1(C)CCCN1C(=O)[C@H]1CN1)C(=O)N1CCC[C@H](N1)C(=O)OCC(C)(C)C2` [Example 239] was tested, and the EC50 (AsPC-1 (K-Ras G12D) [1]; [3]) was < 5 µM, the IC50 (NCI-H358 (K-Ras G12C); [4]) was 0.01 to 0.1 µM and the IC50 (AsPC-1 (K-Ras G12D) [2]; [5]) was 0.1 to 1 µM.

`CCn1c(-c2cnccc2COC)c2c3cc(ccc31)-c1cc(O)cc(c1)C[C@H](NC(=O)[C@H](C(C)C)N(C)C(=O)CN(C)C(=O)[C@H]1N[C@@H]1c1ccccc1)C(=O)N1CCC[C@H](N1)C(=O)OCC(C)(C)C2` [Example 12] was tested, and the EC50 (AsPC-1 (K-Ras G12D) [1]; ASPC1, read-out: pERK EC50) was < 5 µM, the IC50 (NCI-H358 (K-Ras G12C); [14]) was 0.1 to 1 µM and the IC50 (AsPC-1 (K-Ras G12D) [2]; [15]) was 0.1 to 1 µM.
